Reference: publication PMC6380167, “Phosphoglycolate has profound metabolic effects but most likely no role in a metabolic DNA response in cancer cell lines” (Biochemical Journal, 2019)

Molecular target: T1, enolase (Oryctolagus cuniculus, UniProt P25704)
T1 construct: gene ENO3; purified rabbit muscle enolase (Sigma)
Test: coupled pyruvate kinase/lactate dehydrogenase enzyme assay, NADH absorption at […] nm
Assay type: biochemical

T1 sequence (P25704 2-434): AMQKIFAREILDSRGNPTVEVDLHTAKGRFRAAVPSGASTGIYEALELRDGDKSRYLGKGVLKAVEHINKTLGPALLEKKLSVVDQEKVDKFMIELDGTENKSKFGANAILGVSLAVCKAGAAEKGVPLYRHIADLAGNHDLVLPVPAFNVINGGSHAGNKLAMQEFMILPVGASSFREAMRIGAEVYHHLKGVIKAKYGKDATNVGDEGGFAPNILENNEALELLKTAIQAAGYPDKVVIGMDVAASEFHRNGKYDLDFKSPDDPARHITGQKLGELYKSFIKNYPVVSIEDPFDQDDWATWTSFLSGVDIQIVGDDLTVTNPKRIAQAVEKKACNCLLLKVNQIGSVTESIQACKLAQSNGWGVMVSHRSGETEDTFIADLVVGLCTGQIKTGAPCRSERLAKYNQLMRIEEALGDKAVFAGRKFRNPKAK

Compound: O=C(O)COP(=O)(O)O [phosphoglycolate]
- Ki: ~160 µM
